Legend:
Set-up in all cases: species or system AML cell lines (8); Primary HTS, single concentration about 10 uM, Cell Titer Glo viability; log10 luminescence, per cent inhibition relative to cycloheximide control
Details in all cases: 72 h, relative to cycloheximide control, log10 luminescence; inhibitor
ML-2 = tested on: ML-2
MOLM-13 = tested on: MOLM-13
CMS = tested on: CMS
U937 = tested on: U937
CHRF288-11 = tested on: CHRF288-11
MV4-11 = tested on: MV4-11
CMK = tested on: CMK
M07e = tested on: M07e

O=C1NC(=NCCCc2ccccc2)S/C1=C\c1ccc2ncccc2c1 [SJ000581127-1]
ML-2 %inh (ML-2): 2.496% | MOLM-13 %inh (MOLM-13): 42.49% | CMS %inh (CMS): 4.391% | U937 %inh (U937): 2.066% | CHRF288-11 %inh (CHRF288-11): -2.357% | MV4-11 %inh (MV4-11): 18.37% | CMK %inh (CMK): 8.234% | M07e %inh (M07e): 6.993%

COc1cc[nH]c1/C=C1\C(=O)Nc2ccc([N+](=O)[O-])c(N3CC[C@@H](O)C3)c21 [SJ000581128-1]
ML-2 %inh (ML-2): 60.5% | MOLM-13 %inh (MOLM-13): 123.9% | CMS %inh (CMS): 95.24% | U937 %inh (U937): 87.66% | CHRF288-11 %inh (CHRF288-11): 53.94% | MV4-11 %inh (MV4-11): 84.07% | CMK %inh (CMK): 98.31% | M07e %inh (M07e): 106%

O=C1NC(=NCCc2cccc(F)c2)S/C1=C\c1ccc2ncccc2c1 [SJ000581129-1]
ML-2 %inh (ML-2): 47.36% | MOLM-13 %inh (MOLM-13): 21.32% | CMS %inh (CMS): 28.27% | U937 %inh (U937): 84.57% | CHRF288-11 %inh (CHRF288-11): 23.25% | MV4-11 %inh (MV4-11): 43.95% | CMK %inh (CMK): 94.55% | M07e %inh (M07e): 27.94%

OCCn1c(-c2ccncc2)c(-c2ccc(F)cc2)c2ncccc21 [SJ000581130-1]
ML-2 %inh (ML-2): -0.1929% | MOLM-13 %inh (MOLM-13): 0.6818% | CMS %inh (CMS): 3.754% | U937 %inh (U937): 1.305% | CHRF288-11 %inh (CHRF288-11): 7.224% | MV4-11 %inh (MV4-11): 4.176% | CMK %inh (CMK): 5.975% | M07e %inh (M07e): 6.21%

N#Cc1c(C(=O)c2ccccc2)cnn1-c1ccccc1 [SJ000581131-1]
ML-2 %inh (ML-2): 0.5024% | MOLM-13 %inh (MOLM-13): 1.329% | CMS %inh (CMS): 1.498% | U937 %inh (U937): -0.2486% | CHRF288-11 %inh (CHRF288-11): 0.7045% | MV4-11 %inh (MV4-11): 2.305% | CMK %inh (CMK): -0.4032% | M07e %inh (M07e): 8.327%

Nc1c(C(=O)c2ccc(-c3cccnc3)cc2)cnn1-c1ccc(F)cc1 [SJ000581132-1]
ML-2 %inh (ML-2): -1.014% | MOLM-13 %inh (MOLM-13): 0.5666% | CMS %inh (CMS): 7.229% | U937 %inh (U937): -1.133% | CHRF288-11 %inh (CHRF288-11): 1.549% | MV4-11 %inh (MV4-11): 2.713% | CMK %inh (CMK): -0.6442% | M07e %inh (M07e): 5.04%

CN1C[C@@H]2Cn3c(c(C4=C(c5cn(C)c6ccccc56)C(=O)NC4=O)c4ccccc43)C[C@H]2C1 [SJ000581133-2]
ML-2 %inh (ML-2): 1.581% | MOLM-13 %inh (MOLM-13): 14.65% | CMS %inh (CMS): -1.372% | U937 %inh (U937): 4.609% | CHRF288-11 %inh (CHRF288-11): 9.973% | MV4-11 %inh (MV4-11): 12.86% | CMK %inh (CMK): 11.96% | M07e %inh (M07e): 4.251%

O=C1NC(=NCc2ccccc2Cl)S/C1=C\c1ccc2ncccc2c1 [SJ000581134-1]
ML-2 %inh (ML-2): 1.267% | MOLM-13 %inh (MOLM-13): 0.6384% | CMS %inh (CMS): 2.499% | U937 %inh (U937): 2.507% | CHRF288-11 %inh (CHRF288-11): -1.242% | MV4-11 %inh (MV4-11): 3.2% | CMK %inh (CMK): -0.8248% | M07e %inh (M07e): 4.671%

O=C1NC(=N[C@@H]2C[C@H]2c2ccccc2)S/C1=C\c1ccc2ncccc2c1 [SJ000581135-1]
ML-2 %inh (ML-2): 0.9867% | MOLM-13 %inh (MOLM-13): 1.012% | CMS %inh (CMS): -0.3906% | U937 %inh (U937): 9.436% | CHRF288-11 %inh (CHRF288-11): 1.296% | MV4-11 %inh (MV4-11): 2.985% | CMK %inh (CMK): -0.2461% | M07e %inh (M07e): 3.343%

Cn1cc(C2=C(c3cccc4ccccc34)C(=O)NC2=O)c2ccccc21 [SJ000581136-1]
ML-2 %inh (ML-2): -1.062% | MOLM-13 %inh (MOLM-13): -0.09214% | CMS %inh (CMS): 3.922% | U937 %inh (U937): 2.302% | CHRF288-11 %inh (CHRF288-11): 6.432% | MV4-11 %inh (MV4-11): 3.742% | CMK %inh (CMK): 2.941% | M07e %inh (M07e): 1.122%

Reference: article PMC6522510 (Nature Communications, 2019)
